The text below walks through data of patent US20260124183A1, “METHODS OF TREATING SPINOCEREBELLAR ATAXIAS” (Biohaven Therapeutics Ltd., priority 2022, published 2026).

For data set [1], the system named is spinocerebellar ataxia (SCA). Description: Phase 3 clinical study: adverse events of fall, safety and tolerability. In kind it is in vivo, human. Here is the method: (§1) The purpose of this study is to compare the efficacy of Troriluzole (200 mg once daily) versus placebo after 48 weeks of treatment in subjects with spinocerebellar ataxia (SCA).
(§2) • Study Type: Interventional (Clinical Trial) • Actual Enrollment: 218 participants • Allocation: Randomized • Intervention Model: Parallel Assignment • Masking: Triple (Participant, Care Provider, Investigator) • Primary Purpose: Treatment • Official Title: A Phase III, Long-Term, Randomized, Double-blind, Placebo-controlled Trial of Troriluzole in Adult Subjects With Spinocerebellar Ataxia.
(§3) • Arm • Experimental: Arm 1: BHV-4157 • Troriluzole 200 mg by mouth • Placebo Comparator: Arm 2: Placebo • Placebo 200 mg by mouth • Intervention/Treatment • Drug: troriluzole • 200 mg by mouth • Drug: placebo • 200 mg by mouth
• 1. Change from baseline in Patient Impression of Function and Activities of Daily Living Scale (PIFAS) score at Randomization Phase Week 48. [Time Frame: Baseline to week 48] • An increase in the total score indicates a worsening of symptoms. • 2. Change from baseline in Activities of Daily Living Scale from the Friedreich's Ataxia Rating Scale (FARS-ADL) at Randomization Week 48. [Time Frame: Baseline to week 48] • An increase in the total score indicates a worsening of symptoms. • 3. Change from baseline in Functional Staging for Ataxia from the Friedreich's Ataxia Rating Scale (FARS-FUNC) at Randomization Phase Week 48. [Time Frame: Baseline to week 48] • An increase in the total score indicates a worsening of symptoms. • 4. Frequency of subjects with the following adverse events (AEs) identified from case report forms: AEs (by severity; by relationship to study drug; overall); SAEs; and AEs leading to treatment discontinuation. [Time Frame: Baseline to week 48]

Data set [2] can be described thus: Solubility of drug substance in water. Type of data set: physicochemical.
Data set [3] relates to spinocerebellar ataxia (SCA). Description: Phase 3 clinical study of troriluzole in spinocerebellar ataxia: f-SARA total score change. In kind it is in vivo, human. Conditions: for LS mean change difference in f-SARA score from baseline vs placebo: Week 48, 200 mg daily. Here is the method:
Phase 3 Clinical Study for Troriluzole in Adult Subjects with Spinocerebellar Ataxia
as §1, §2, §3
• 1. Change from Baseline in the total score of the Modified Functional Scale for the Assessment and Rating of Ataxia (f-SARA) after 48 weeks of treatment. [Time Frame: Baseline to week 48] • An increase in the total score indicates a worsening of symptoms.
• 1. Subjects with a known or suspected diagnosis of the following specific hereditary ataxias: SCA1, SCA2, SCA3, SCA6, SCA7, SCA8 and SCA10; currently only enrolling SCA 1, SCA2, SCA3, SCA7, and SCA10 (the cap has been met for SCA6 and SCA8 (on May 31, 2019)); • a. A subject should have a confirmed genotypic diagnosis from a CLIA certified lab (can produce test results); or • b. A subject has a family member that has a confirmed genotypic diagnosis from a CLIA certified lab (can produce test results) and must be willing to undergo genetic testing to confirm underlying SCA diagnosis; or • c. A subject has a confirmed genotypic diagnosis from a lab that is not CLIA certified and must be willing to undergo genetic testing to confirm underlying SCA diagnosis; or • d. […] Ability to ambulate 8 meters without human assistance (canes and other devices allowed). • 3. Screening f-SARA total score ≥3. • 4. Score of ≥1 on gait subsection of the f-SARA. • 5. Determined by the investigator to be medically stable at Baseline/randomization as assessed by medical history, physical examination, laboratory test results, and electrocardiogram testing.
• 1. A ≥2-point difference on the Modified Functional SARA score between screening and baseline. • 2. MMSE score <24. • 3. […] A prominent spasticity or dystonia that, in the opinion of the investigator, will compromise the ability of the SARA instrument to assess underlying ataxia severity. • 5. A score of 4 on any individual item (Items 1-4) of the f-SARA. • 6. Subjects should be excluded at screening or baseline if medical conditions have arisen or there is a change in disease status that could confound the ability of the SARA to accurately reflect changes in ataxia severity. • 7. Active liver disease or a history of hepatic intolerance to medications that in the investigator's judgment, is medically significant.

The structures appear in SMILES notation. Structures can show the parent of a compound that is named as a salt.

Turning to `CN(CC(=O)Nc1nc2ccc(OC(F)(F)F)cc2s1)C(=O)CNC(=O)CN` [troriluzole, 2-amino-N-({methyl-[(6-trifluoromethoxy-benzothiazol-2-ylcarbamoyl)-methyl]-carbamoyl}-methyl)-acetamide monohydrate monohydrochloride], the “reduction of fall risk versus placebo” value was “approximately 50%” in data set [1] (SCA3 genotype, patient reported falls as adverse events, nominal p=0.04) and “approximately 59%” in data set [1] (all genotypes, patients able to ambulate at baseline (f-SARA Gait Item score=1), nominal p=0.043). For the same compound, the “AE incidence of falls” value was 16% in data set [1] (SCA3 genotype, placebo 32%) and 10% in data set [1] (all genotypes, patients able to ambulate at baseline (f-SARA Gait Item score=1), placebo 23%). Moreover, in data set [1] (overall, Phase 3 study), the “safety and tolerability profile” value was “favorable safety and tolerability profile”. Moreover, the solubility in water result in data set [2] is “freely soluble in water”. The “LS mean change difference compared to placebo” value in data set [3] (SCA3 patient able to walk without assistance at baseline, week 4, 200 mg daily) is listed as “at least −0.67”; in data set [3] (SCA3 patient, week 4, 200 mg daily), “at least −0.46”; in data set [3] (SCA3 patient, week 8, 200 mg daily (first statement)) it was “at least −0.12”; in data set [3] (SCA3 patient, week 8, 200 mg daily (subgroup not given)), “at least −0.33”; in data set [3] (SCA3 patient, week 12, 200 mg daily (first statement)), “at least −0.46”; in data set [3] (SCA3 patient, week 12, 200 mg daily (subgroup not given)) it was “at least −0.71”. In addition, the “LS mean change difference compared to placebo” value in data set [3] (SCA3 patient, week 24, 200 mg daily (first statement)) is “at least −0.17”; in data set [3] (SCA3 patient, week 24, 200 mg daily (subgroup not given)), “at least −0.40”; in data set [3] (SCA3 patient, week 36, 200 mg daily (first statement)), “at least −0.72”; in data set [3] (SCA3 patient, week 36, 200 mg daily (subgroup not given)) it was “at least −0.55”. The “LS mean change difference in f-SARA score from baseline vs placebo” value is −0.71 in data set [3] (SCA3 patients able to walk without assistance at baseline (f-SARA Gait Item score=1), nominal p=0.031, 95% CI −1.36, −0.07) and −0.55 in data set [3] (SCA3 subgroup, nominal p=0.053, 95% CI −1.12, 0.01, post-hoc). For the same compound, the “primary endpoint, change from baseline to Week 48 on f-SARA (statistical outcome)” value in data set [3] (overall SCA population, 200 mg once daily vs placebo, 48 weeks, p=0.76) is “did not reach statistical significance”. For the same compound, the “f-SARA score at the 48-week endpoint” value in data set [3] (overall study population N=213, mean baseline score 4.9, 200 mg once daily, placebo 5.2) came to 5.1.
